Literature values, collected in US20110275602A1, “PHARMACEUTICAL ASSOCIATION, COMPOSITIONS FOR TOPICAL USE, FORMS OF DOSAGE AND METHOD OF TREATMENT OF ACUTE OR CHRONIC OTITIS IN PET ANIMALS” (priority 2007, published 2011).

Test system: acute external otitis
Conditions: humans; literature

O=C(O)c1cn(C2CC2)c2cc(N3CCNCC3)c(F)cc2c1=O [ciprofloxacin]
efficacy for the treatment of acute external otitis: 77%
